From US20230150974A1 (Foghorn Therapeutics Inc., priority 2020, published 2023)

What was measured:
[1] = target: T1, HiBiT-BRM (Homo sapiens, UniProt P51531); assay: HiBiT-BRM cell-based degradation assay (Nano-Glo HiBiT Lytic Detection); conditions: HeLa cells expressing HiBiT-BRM, 24 h; for DC50: read-out: BRM HiBit Degradation IC50
T1 construct: expressed in transfected cells
Procedure, shortened: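 HeLa cells stably expressing HiBiT-tagged BRM were treated for 24 h, then lysed with LgBiT-containing Nano-Glo reagent and luminescence read. % degradation scaled between DMSO (high control) and 2 μM reference BRM/BRG1 degrader (low control).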

[2] = target: T2, HiBit-BRG1 (Homo sapiens, UniProt P51532); assay: HiBit-BRG1 cell-based degradation assay (Nano-Glo HiBiT Lytic Detection); conditions: HeLa cells expressing HiBit-BRG1 and LgBit, 24 h; for DC50: read-out: BRG1 HiBit Degradation IC50; for Dmax: read-out: BRG1 HiBit Degradation Maximum (%)
T2 construct: expressed in transfected cells
Procedure, shortened: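 HeLa cells stably expressing HiBit-BRG1 plus LgBit; compound exposure 24 h; Nano-Glo HiBiT lytic luminescence; % degradation vs DMSO (0%) and 2 μM standard BRM/BRG1 degrader (100%).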

T2 sequence (P51532 whole entry): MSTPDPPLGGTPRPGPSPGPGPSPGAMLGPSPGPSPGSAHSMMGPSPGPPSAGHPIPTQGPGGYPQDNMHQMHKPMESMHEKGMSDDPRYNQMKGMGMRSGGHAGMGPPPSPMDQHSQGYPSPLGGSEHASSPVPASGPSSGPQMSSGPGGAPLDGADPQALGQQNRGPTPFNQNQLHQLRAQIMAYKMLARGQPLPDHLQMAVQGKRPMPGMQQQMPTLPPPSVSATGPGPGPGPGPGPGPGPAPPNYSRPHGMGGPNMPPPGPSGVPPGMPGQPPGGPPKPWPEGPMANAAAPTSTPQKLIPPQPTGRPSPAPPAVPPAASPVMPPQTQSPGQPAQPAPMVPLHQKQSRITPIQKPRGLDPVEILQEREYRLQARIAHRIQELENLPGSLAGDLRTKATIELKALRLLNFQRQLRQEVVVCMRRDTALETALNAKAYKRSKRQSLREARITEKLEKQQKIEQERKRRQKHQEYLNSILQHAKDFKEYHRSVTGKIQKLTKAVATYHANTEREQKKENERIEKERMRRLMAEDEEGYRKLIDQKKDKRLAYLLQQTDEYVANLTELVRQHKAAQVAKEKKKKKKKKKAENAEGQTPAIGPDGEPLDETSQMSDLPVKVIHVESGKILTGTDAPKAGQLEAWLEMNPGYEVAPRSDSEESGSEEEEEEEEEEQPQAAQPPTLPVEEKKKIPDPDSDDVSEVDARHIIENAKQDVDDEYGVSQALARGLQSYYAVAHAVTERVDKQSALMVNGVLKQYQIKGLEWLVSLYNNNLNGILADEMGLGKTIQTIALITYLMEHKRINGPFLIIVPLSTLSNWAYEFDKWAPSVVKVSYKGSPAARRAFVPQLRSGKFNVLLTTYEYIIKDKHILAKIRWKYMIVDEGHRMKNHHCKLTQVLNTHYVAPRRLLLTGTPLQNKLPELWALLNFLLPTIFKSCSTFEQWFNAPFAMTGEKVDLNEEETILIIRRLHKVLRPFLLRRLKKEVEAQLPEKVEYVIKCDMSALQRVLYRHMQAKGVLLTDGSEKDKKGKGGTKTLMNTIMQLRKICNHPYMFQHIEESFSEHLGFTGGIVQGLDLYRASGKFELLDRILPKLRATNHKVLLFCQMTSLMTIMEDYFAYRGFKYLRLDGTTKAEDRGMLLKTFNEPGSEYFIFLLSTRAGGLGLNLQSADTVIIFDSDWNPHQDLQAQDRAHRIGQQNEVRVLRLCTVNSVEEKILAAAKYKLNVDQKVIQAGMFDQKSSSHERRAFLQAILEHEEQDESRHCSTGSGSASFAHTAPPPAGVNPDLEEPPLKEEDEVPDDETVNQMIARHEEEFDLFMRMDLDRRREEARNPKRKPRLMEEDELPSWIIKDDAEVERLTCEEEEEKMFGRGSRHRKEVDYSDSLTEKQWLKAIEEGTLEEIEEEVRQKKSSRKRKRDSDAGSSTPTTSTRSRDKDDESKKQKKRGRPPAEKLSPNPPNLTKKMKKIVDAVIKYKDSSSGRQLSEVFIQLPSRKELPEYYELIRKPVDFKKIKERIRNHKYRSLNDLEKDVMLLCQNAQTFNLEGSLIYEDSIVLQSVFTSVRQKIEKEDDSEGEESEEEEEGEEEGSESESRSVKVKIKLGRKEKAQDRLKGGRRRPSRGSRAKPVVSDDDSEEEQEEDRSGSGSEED
T1 sequence (P51531 whole entry): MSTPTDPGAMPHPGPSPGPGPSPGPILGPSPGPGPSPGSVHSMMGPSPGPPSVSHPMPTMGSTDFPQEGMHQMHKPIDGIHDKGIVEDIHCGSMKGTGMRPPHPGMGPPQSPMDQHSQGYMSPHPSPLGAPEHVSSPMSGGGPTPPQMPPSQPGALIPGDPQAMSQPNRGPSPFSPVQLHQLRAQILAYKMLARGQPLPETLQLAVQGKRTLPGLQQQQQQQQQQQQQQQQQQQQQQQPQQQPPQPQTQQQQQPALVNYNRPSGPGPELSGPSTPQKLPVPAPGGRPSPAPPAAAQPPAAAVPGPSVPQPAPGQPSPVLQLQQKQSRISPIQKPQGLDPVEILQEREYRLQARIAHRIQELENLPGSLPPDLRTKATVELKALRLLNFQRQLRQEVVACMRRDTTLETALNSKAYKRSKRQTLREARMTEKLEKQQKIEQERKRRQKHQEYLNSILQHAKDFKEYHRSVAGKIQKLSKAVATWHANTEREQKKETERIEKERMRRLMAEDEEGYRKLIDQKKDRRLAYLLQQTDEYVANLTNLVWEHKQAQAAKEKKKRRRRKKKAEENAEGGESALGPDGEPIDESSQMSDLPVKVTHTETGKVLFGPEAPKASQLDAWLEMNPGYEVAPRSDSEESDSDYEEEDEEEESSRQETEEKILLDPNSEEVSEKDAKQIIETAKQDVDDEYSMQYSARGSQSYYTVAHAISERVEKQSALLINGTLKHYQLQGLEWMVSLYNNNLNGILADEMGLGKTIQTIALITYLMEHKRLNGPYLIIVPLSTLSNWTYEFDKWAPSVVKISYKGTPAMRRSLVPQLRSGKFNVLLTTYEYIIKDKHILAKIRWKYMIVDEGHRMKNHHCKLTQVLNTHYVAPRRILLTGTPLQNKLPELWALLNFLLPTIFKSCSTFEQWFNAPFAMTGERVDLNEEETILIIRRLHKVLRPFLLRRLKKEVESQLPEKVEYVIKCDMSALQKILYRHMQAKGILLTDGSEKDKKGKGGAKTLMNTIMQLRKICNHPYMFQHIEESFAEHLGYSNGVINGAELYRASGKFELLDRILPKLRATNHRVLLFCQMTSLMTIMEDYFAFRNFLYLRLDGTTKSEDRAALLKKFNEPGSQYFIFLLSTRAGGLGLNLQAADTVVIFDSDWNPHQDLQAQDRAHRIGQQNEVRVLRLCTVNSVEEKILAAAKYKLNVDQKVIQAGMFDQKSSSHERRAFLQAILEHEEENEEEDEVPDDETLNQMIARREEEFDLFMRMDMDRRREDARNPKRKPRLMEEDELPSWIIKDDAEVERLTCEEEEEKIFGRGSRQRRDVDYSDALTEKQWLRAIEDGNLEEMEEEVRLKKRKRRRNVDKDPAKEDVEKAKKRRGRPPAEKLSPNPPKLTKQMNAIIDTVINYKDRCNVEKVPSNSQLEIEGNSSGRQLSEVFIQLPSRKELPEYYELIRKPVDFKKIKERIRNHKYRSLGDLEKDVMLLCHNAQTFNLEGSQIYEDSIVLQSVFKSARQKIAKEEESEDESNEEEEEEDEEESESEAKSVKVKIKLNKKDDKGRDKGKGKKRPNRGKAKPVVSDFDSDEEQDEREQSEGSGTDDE

Compound	BRM HiBit Degradation Maximum (%) [1]	DC50 [1] [nM]	DC50 [2] [nM]	Dmax [2] [%]
Cc1ncsc1-c1ccc(CNC(=O)[C@@H]2C[C@@H](O)CN2C(=O)[C@@H](NC(=O)CCCCCCCCCCCCCCC(=O)NCc2ccc(CCOc3cc(-c4ccccc4O)nnc3N)cc2)C(C)(C)C)cc1 [Compound 40, N1-(4-(2-((3-amino-6-(2-hydroxyphenyl)pyridazin-4-yl)oxy)ethyl)benzyl)-N16-((S)-1-((2S,4R)-4-hydroxy-2-((4-(4-methylthiazol-5-yl)benzyl)carbamoyl)pyrrolidin-1-yl)-3,3-dimethyl-1-oxobutan-2-yl)hexadecanediamide]	A (“A” indicates maximum degradation ≥75%)	> 100	> 1000	< 50
Cc1ncsc1-c1ccc([C@H](C)NC(=O)[C@@H]2C[C@@H](O)CN2C(=O)[C@@H](NC(=O)CCCCCCCCCCCCCCCC(=O)N(C)Cc2ccc(CCOc3cc(-c4ccccc4O)nnc3N)cc2)C(C)(C)C)cc1 [Compound 227, N1-(4-(2-((3-amino-6-(2-hydroxyphenyl)pyridazin-4-yl)oxy)ethyl)benzyl)-N17-((S)-1-((2S,4R)-4-hydroxy-2-(((S)-1-(4-(4-methylthiazol-5-yl)phenyl)ethyl)carbamoyl)pyrrolidin-1-yl)-3,3-dimethyl-1-oxobutan-2-yl)-N1-methylheptadecanediamide]	A (“A” indicates maximum degradation ≥75%)	> 10	> 100	> 75
Nc1nnc(-c2ccccc2O)cc1N1CCN(CCNC(=O)CCCCCCCCCCNc2ccc3c(c2)C(=O)N(C2CCC(=O)NC2=O)C3=O)CC1 (centres unmarked) [Compound 99, N-(2-[4-[3-amino-6-(2-hydroxyphenyl)pyridazin-4-yl]piperazin-1-yl]ethyl)-11-[[2-(2,6-dioxopiperidin-3-yl)-1,3-dioxo-2,3-dihydro-1H-isoindol-5-yl]amino]undecanamide]	C (“C” indicates maximum degradation <50%)	> 1000	> 1000	< 50
Cc1ncsc1-c1ccc([C@H](C)NC(=O)[C@@H]2C[C@@H](O)CN2C(=O)[C@@H](c2cc(OCCN3CCC(C4CN(C(=O)c5ccc(CCOc6cc(-c7ccccc7O)nnc6N)cc5)C4)CC3)no2)C(C)C)cc1 [Compound 207, (2S,4R)-1-[(2R)-2-[3-[2-(4-[1-[4-(2-[[3-amino-6-(2-hydroxyphenyl)pyridazin-4-yl]oxy]ethyl)benzoyl]azetidin-3-yl]piperidin-1-yl)ethoxy]-1,2-oxazol-5-yl]-3-methylbutanoyl]-4-hydroxy-N-[(1S)-1-[4-(4-methyl-1,3-thiazol-5-yl)phenyl]ethyl]pyrrolidine-2-carboxamide]	A (“A” indicates maximum degradation ≥75%)	> 10	> 1000	< 50
Cc1ncsc1-c1ccc(CNC(=O)[C@@H]2C[C@@H](O)CN2C(=O)[C@@H](NC(=O)CCCCCCCCCNC(=O)c2ccc(CCN(C)c3cc(-c4ccccc4O)nnc3N)cc2)C(C)(C)C)cc1 [Compound 20, (2S,4R)-1-[(2S)-2-(10-[[4-(2-[[3-amino-6-(2-hydroxyphenyl)pyridazin-4-yl](methyl)amino]ethyl)phenyl]formamido]decanamido)-3,3-dimethylbutanoyl]-4-hydroxy-N-[[4-(4-methyl-1,3-thiazol-5-yl)phenyl]methyl]pyrrolidine-2-carboxamide]	A (“A” indicates maximum degradation ≥75%)	> 10	> 100	> 75
Nc1nnc(-c2ccccc2O)cc1OCCc1ccc(CNCCCCNc2cccc3c2C(=O)N(C2CCC(=O)NC2=O)C3=O)cc1 (centres unmarked) [Compound 107, 4-[[4-([[4-(2-[[3-amino-6-(2-hydroxyphenyl)pyridazin-4-yl]oxy]ethyl)phenyl]methyl]amino)butyl]amino]-2-(2,6-dioxopiperidin-3-yl)isoindole-1,3-dione]	C (“C” indicates maximum degradation <50%)	> 1000	> 1000	> 50
Nc1nnc(-c2ccccc2O)cc1OCCc1ccc(CNC(=O)CCCCOc2cccc3c2CN(C2CCC(=O)NC2=O)C3=O)cc1 (centres unmarked) [Compound 130, N-(4-(2-((3-amino-6-(2-hydroxyphenyl)pyridazin-4-yl)oxy)ethyl)benzyl)-5-((2-(2,6-dioxopiperidin-3-yl)-1-oxoisoindolin-4-yl)oxy)pentanamide]	C (“C” indicates maximum degradation <50%)	> 1000	> 1000	< 50
Cc1ncsc1-c1ccc(CNC(=O)[C@@H]2C[C@@H](O)CN2C(=O)[C@@H](NC(=O)CN2CCC3(CCN(CCC(=O)NCc4ccc(CCOc5cc(-c6ccccc6O)nnc5N)cc4)CC3)CC2)C(C)(C)C)cc1 [Compound 266, (2S,4R)-1-((S)-2-(2-(9-(3-((4-(2-((3-amino-6-(2-hydroxyphenyl)pyridazin-4-yl)oxy)ethyl)benzyl)amino)-3-oxopropyl)-3,9-diazaspiro[5.5]undecan-3-yl)acetamido)-3,3-dimethylbutanoyl)-4-hydroxy-N-(4-(4-methylthiazol-5-yl)benzyl)pyrrolidine-2-carboxamide]	A (“A” indicates maximum degradation ≥75%)	> 1000	> 1000	< 50
Cc1ncsc1-c1ccc([C@H](C)NC(=O)[C@@H]2C[C@@H](O)CN2C(=O)[C@@H](NC(=O)CN2CCC3(CCN(CCC(=O)NCc4ccc(CCOc5cc(-c6ccccc6O)nnc5N)cc4)CC3)CC2)C(C)(C)C)cc1 [Compound 267, (2S,4R)-1-((S)-2-(2-(9-(3-((4-(2-((3-amino-6-(2-hydroxyphenyl)pyridazin-4-yl)oxy)ethyl)benzyl)amino)-3-oxopropyl)-3,9-diazaspiro[5.5]undecan-3-yl)acetamido)-3,3-dimethylbutanoyl)-4-hydroxy-N-((S)-1-(4-(4-methylthiazol-5-yl)phenyl)ethyl)pyrrolidine-2-carboxamide]	A (“A” indicates maximum degradation ≥75%)	> 1000	> 1000	< 50
Cc1ncsc1-c1ccc(CNC(=O)[C@@H]2C[C@@H](O)CN2C(=O)[C@@H](NC(=O)COCCNC(=O)c2ccc(CCOc3cc(-c4ccccc4O)nnc3N)cc2)C(C)(C)C)cc1 [Compound 163, (2S,4R)-1-((S)-2-(2-(2-(4-(2-((3-amino-6-(2-hydroxyphenyl)pyridazin-4-yl)oxy)ethyl)benzamido)ethoxy)acetamido)-3,3-dimethylbutanoyl)-4-hydroxy-N-(4-(4-methylthiazol-5-yl)benzyl)pyrrolidine-2-carboxamide]	B (“B” indicates maximum degradation ≥50%)	> 1000	> 1000	< 50
Cc1ncsc1-c1ccc([C@H](C)NC(=O)[C@@H]2C[C@@H](O)CN2C(=O)[C@@H](NC(=O)CCCCCCCCC(=O)NCc2ccc(CCOc3cc(-c4ccccc4O)nnc3N)cc2)C(C)(C)C)cc1 [Compound 257, N1-(4-(2-((3-amino-6-(2-hydroxyphenyl)pyridazin-4-yl)oxy)ethyl)benzyl)-N10-((S)-1-((2S,4R)-4-hydroxy-2-(((S)-1-(4-(4-methylthiazol-5-yl)phenyl)ethyl)carbamoyl)pyrrolidin-1-yl)-3,3-dimethyl-1-oxobutan-2-yl)decanediamide]	A (“A” indicates maximum degradation ≥75%)	> 10	> 1000	< 50
